What was measured:
[1] = test system: Aβ42; experiment: HEK assay: Aβ42 secreted to cell medium, Meso Scale Discovery electrochemiluminescence; assay type: cell-based; conditions: Homo sapiens, HEK293; HEK cell line stably expressing APPswe; 4-6 hours incubation with test compound; read-out: pIC50 Aβ42 HEK assay (converted)
Method: Compounds were diluted in 100% DMSO and stored at […] prior to use. Human Embryonic Kidney (HEK) cell line stably expressing APP with the Swedish mutation (APPswe) was cultured using Dulbecco's Modified Eagles medium (DMEM) supplied with […] glucose, Na-pyruvate and GlutaMAX, 10% Foetal bovine serum, 100 U/mL penicillin-streptomycin (PEST), 1× non-essential amino acids (NEAA), […] Hepes, 100 μg/mL Zeocine. Cells at about 80% confluence were washed with PBS, detached from culture flasks using 1× Trypsin/EDTA diluted in PBS, re-suspended in cell media and plated in 384-well poly-d-lysine coated cell culture plates at about 10000-15000 cells/well, in 25 μL cell media. Optionally, cryo-preserved cells (frozen and stored at −140° C. in 90% cell media and 10% DMSO) were thawed, washed and plated as above. Next the cells were incubated for 15-24 h at 37° C. and 5% CO2, after which cell medium was changed. Fresh medium containing test compound diluted ×200 from prepared compound plate was added to the cells before further incubation for 4-6 hours at 37° C. and 5% CO2. After incubation with test compound the amount of Aβ peptides, including Aβ42, Aβ40, Aβ39, Aβ38 and Aβ37, secreted to cell medium was analyzed using the electrochemiluminescence assay technology from Meso Scale Discovery Technology, in combination with specific antibodies raised against the different Aβ peptides. Potential cytotoxic effects of the compounds were assayed by measuring the ATP content (ViaLight) from cell lysate.

[2] = test system: Aβ42; experiment: PCN assay: Aβ42 secreted by primary cortical neuronal cells, ELISA; assay type: cell-based; conditions: primary cortical neuronal cells from 16-day mouse embryos; 16-20 hours incubation with test compound; read-out: pIC50 Aβ42 PCN assay (converted)
Method: Compounds were diluted in 100% DMSO and stored at […] prior to use. Primary cortical neuronal cells (PCN) were isolated from 16-day mouse embryos and cultured in Ham's F12 media containing 10% Foetal bovine serum, 10 mM Hepes, 2 mM L-glutamine and 100 U/mL Penicillin-Streptomycin. 150000-250000 cells/well, in 200 μL cell media were seeded onto 96-well poly-D-Lysine coated plates. After incubation at 37° C., 5% CO2 for five days, the media was exchanged for fresh medium containing test compound diluted ×100, before further incubation for 16-20 hours at 37° C. and 5% CO2. After incubation with test compound the amount of […] secreted to cell medium was analyzed using the solid phase sandwich Enzyme-Linked-Immuno-Sorbent Assay (ELISA)-kit from Invitrogen for detection of mouse βAmyloid 1-42. Potential cytotoxic effects of the compounds were assayed by measuring the ATP content (Via Light) from cell lysate.

Work on `COc1cc(Nc2nc(COCC(F)(F)F)cc(N3CCC(F)(F)CC3)n2)ccc1-n1cnc(C)c1` [Example 26, 4-(4,4-Difluoropiperidin-1-yl)-N-(3-methoxy-4-(4-methyl-1H-imidazol-1-yl)phenyl)-6-((2,2,2-trifluoroethoxy)methyl)pyrimidin-2-amine] yielded an IC50 [1] of 50.1 nM and an IC50 [2] of 20 nM.

`COc1cc(Nc2nc(COCC(F)(F)F)cc(N(C)Cc3ccccc3)n2)ccc1-n1cnc(C)c1` [Example 25, N^4-Benzyl-N^2-(3-methoxy-4-(4-methyl-1H-imidazol-1-yl)phenyl)-N^4-methyl-6-((2,2,2-trifluoroethoxy)methyl)pyrimidine-2,4-diamine] gave an IC50 [1] of 25.1 nM and an IC50 [2] of 50.1 nM.
